# Measurements reported in patent US20220120736A1, “METHODS AND ASSAYS FOR MODULATING GENE TRANSCRIPTION BY MODULATING CONDENSATES” (Whitehead Institute for Biomedical Research, priority 2018, published 2022).
# Key:
# [1] = system: ER LBD-MED1 condensate in U2OS-Lac cells; assay: LAC binding assay (ER LBD tethered to Lac array); type: cell-based; details: for MED1-containing condensate formation at tethered ER LBD: U2OS-Lac cells, 45 minutes, 10 nM B-Estradiol or 1 uM 4-Hydroxytamoxifen
# Protocol: Constructs were assembled by NEB HIFI cloning in pSV2 mammalian expression vector containing an SV40 promoter driving expression of a CFP-LacI fusion protein. The activation domains and mutant activation domains of ESR1 were fused by the c-terminus to this recombinant protein, joined by the linker sequence […] (SEQ ID NO: 14). For some experiments a variant plasmid with mCherry in place of CFP was used. […] Cells were then plated on fibronectin-coated glass coverslips and transfected using lipofectamine 3000 (Thermofisher L3000015). For high MED1 conditions, a construct with a mammalian expression vector containing a PGK promoter driving the expression of MED1 fused to GFP was co-transfected. […] Following treatment, cells were fixed and immunofluorescence was performed with a MED1 antibody as described above.
# For analysis of Lac array data, custom Python scripts were written to process and analyze image data gathered in Lac and tagged-protein channels. Nuclear stains were blurred with a Gaussian filter (sigma=2.0) and clustered into 2 clusters (nuclei and background) by K-means. The nuclei were then labeled with the python scikit-image package using the measure.label function. To segment Lac spots, the Lac image channel was blurred with a Gaussian filter (sigma=2.0), and an intensity threshold (mean+1.5*std) was applied to the image. Segmented regions (also determined by measure.label) were then filtered based on minimum area (150 pixels), maximum area (2000 pixels), circularity (c=4pi*area/perimeter^2; 0.8), and presence in a nucleus as defined by the mask described above. A norm enrichment ratio was calculated by determining the mean intensity of the tagged-protein in the segmented Lac spot and dividing it by the mean intensity of the tagged-protein present in the same whole nucleus.
# [2] = system: MYC RNA expression in MCF7 cells; assay: RT-qPCR of MYC RNA expression; type: cell-based, human; details: MCF7 cells estrogen-deprived 3 days; 10 nM estrogen, or 10 nM estrogen and 5 uM 4-hydroxytamoxifen, 24 hours; normalized to GAPDH
# Protocol: RNA was isolated by AllPrep Kit (Qiagen 80204) followed by cDNA synthesis using High-Capacity cDNA Reverse Transcription Kit (Applies Biosystems 4368814). qPCR was performed in biological and technical triplicate using Power SYBR Green mix (Life Technologies #4367659) on a QuantStudio 6 System (Life Technologies). The following oligos was used in the qPCR; Myc fwd […] (SEQ ID NO: 255), MYC rev […] (SEQ ID NO: 256), GAPDH fwd […] (SEQ ID NO: 257), GAPDH rev […] (SEQ ID NO: 258). Fold change was calculated and MYC expression values were normalized to GAPDH expression.
# [3] = system: MED1 signal at the MYC locus in MCF7 cells; assay: Immunofluorescence for MED1 with DNA FISH at the MYC locus; type: cell-based, human; details: MCF7 cells estrogen-deprived 3 days; 10 uM estradiol, or 10 uM estradiol and 5 uM 4-hydroxytamoxifen, 45 minutes
# Protocol: Human tumor tissues sliced at 10 μm thickness or cells grown on Poly-L-Ornithine coated glass were washed once with PBS and fixed in 4% Paraformaldehyde, PFA, (VWR, BT140770) for 10 minutes. After three washes in PBS for 5 min, cells were stored at 4° C. or transferred to a humidifying chamber and processed for immunofluorescence. Permeabilization of cells was performed using 0.5% triton X100 (Sigma Aldrich, X100) in PBS for 10 minutes followed by three PBS washes. Cells were blocked with 4% IgG-free Bovine Serum Albumin, BSA, (VWR, 102643-516) for 30 minutes and the indicated primary antibody (ER ab32063, MED1 ab64965) was added at a concentration of 1:500 in 4% IgG-free Bovine Serum Albumin for 4-16 hours. […]
# For analysis of RNA/DNA FISH with immunofluorescence, custom Python scripts were written to process and analyze 3D image data gathered in FISH and IF channels. […] These FISH foci were filtered by various criteria, including size (minimum 100 voxels), circularity of a max z-projection (circularity=4pi*area/perimeter^2; 0.7), and being present in a nucleus (determined by nuclear mask described above). […] The IF signal centered at FISH foci for each FISH and IF pair are then combined and an average intensity projection is calculated, providing averaged data for IF signal intensity within a l×l square centered at FISH foci. […]
SMILES,MED1-containing condensate formation at tethered ER LBD [1],"MED1 condensate formation at tethered ER LBD, dependence on estrogen ([1]; normal ER)",MYC RNA expression [2],MED1 signal at MYC [3],MED1 condensate generation by tethered ER LBD in the presence of tamoxifen ([1]; MED1 overexpressed),MED1 condensate generation by tethered ER LBD in the presence of tamoxifen ([1]; normal MED1 levels)
"C[C@]12CC[C@@H]3c4ccc(O)cc4CC[C@H]3[C@@H]1CC[C@@H]2O [estrogen, B-Estradiol]",generated a MED1-containing condensate,only in the presence of estrogen,increase,enhanced,,
CC/C(=C(\c1ccccc1)c1ccc(OCCN(C)C)cc1)c1ccccc1 [tamoxifen],prevented,,reduced,reduced,generated a MED1 condensate,did not generate a MED1 condensate
